The record followed here is PMC5039751, “Profiling of core fucosylated N-glycans using a novel bacterial lectin that specifically recognizes α1,6 fucosylated chitobiose” (Scientific Reports, 2016).

Experiment [1] addresses T1, SL2-1 (Streptomyces rapamycinicus, UniProt A0ABR6LWE4).
T1 construct: gene BJY27_006859; monomer with three ~40-residue repeats
T1 sequence (A0ABR6LWE4 31-188): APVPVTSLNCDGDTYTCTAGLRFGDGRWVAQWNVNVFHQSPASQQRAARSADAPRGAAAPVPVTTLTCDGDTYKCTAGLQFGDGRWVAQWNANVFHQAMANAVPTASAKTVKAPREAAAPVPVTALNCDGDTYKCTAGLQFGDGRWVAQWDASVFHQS
Description: lectin capture in Microcon-30 filter, UPLC-HILIC-FLR. Format: binding. As to conditions: labelled compound (2-AB); mixture of four glycans, 4 pmol each, 20 μg SL2-1, 10 mM Tris-HCl pH 8.0, room temperature; proteinase K elution.

For experiment [2], the target named is T1, SL2-1. Nature of the experiment: isothermal titration calorimetry. Particulars: 20 mM sodium phosphate pH 7.4, 25 °C. Format: binding. From the text: isothermal titration calorimetry on SL2-1

As to `CC(=O)N[C@H]1[C@H](O[C@@H]([C@H](O)[C@H](CNc2ccccc2C(N)=O)NC(C)=O)[C@H](O)CO[C@@H]2O[C@@H](C)[C@@H](O)[C@@H](O)[C@@H]2O)O[C@H](CO)[C@@H](O[C@@H]2O[C@H](CO[C@H]3O[C@H](CO)[C@@H](O)[C@H](O)[C@@H]3O[C@@H]3O[C@H](CO)[C@@H](O[C@@H]4O[C@H](CO)[C@H](O)[C@H](O)[C@H]4O)[C@H](O)[C@H]3NC(C)=O)[C@@H](O)[C@H](O[C@H]3O[C@H](CO)[C@@H](O)[C@H](O)[C@@H]3O[C@@H]3O[C@H](CO)[C@@H](O[C@@H]4O[C@H](CO)[C@H](O)[C@H](O)[C@H]4O)[C@H](O)[C@H]3NC(C)=O)[C@@H]2O)[C@@H]1O` [NA2F, 2-aminobenzamide (2-AB)-labeled asialo-, galactosylated biantennary N-glycan with core α1-6 fucose], the “% of total loaded recovered from lectin-bound fraction” value in experiment [1] came to 95%.
With `CC(=O)N[C@H]1[C@H](O[C@H]2[C@H](O)[C@@H](NC(C)=O)C(O)O[C@@H]2CO[C@@H]2O[C@@H](C)[C@@H](O)[C@@H](O)[C@@H]2O)O[C@H](CO)[C@@H](O)[C@@H]1O` (stereo partly drawn) [N2F, α1-6 fucosylated chitobiose], binding in experiment [2] (n = 2.01) was put at a Kd of 1590 nM.
On to `CC(=O)N[C@H]1[C@H](O[C@H]2[C@H](O)[C@@H](NC(C)=O)C(O)O[C@@H]2CO[C@@H]2O[C@@H](C)[C@@H](O)[C@@H](O)[C@@H]2O)O[C@H](CO)[C@@H](O[C@@H]2O[C@H](CO[C@H]3O[C@H](CO)[C@@H](O)[C@H](O)[C@@H]3O[C@@H]3O[C@H](CO)[C@@H](O[C@@H]4O[C@H](CO[C@]5(C(=O)O)C[C@H](O)[C@@H](NC(C)=O)[C@H]([C@H](O)[C@H](O)CO)O5)[C@H](O)[C@H](O)[C@H]4O)[C@H](O)[C@H]3NC(C)=O)[C@@H](O)[C@H](O[C@H]3O[C@H](CO)[C@@H](O)[C@H](O)[C@@H]3O[C@@H]3O[C@H](CO)[C@@H](O[C@@H]4O[C@H](CO)[C@H](O)[C@H](O)[C@H]4O)[C@H](O)[C@H]3NC(C)=O)[C@@H]2O)[C@@H]1O` (stereo partly shown) [A1F, monosialo-fucosylated biantennary N-glycan], for which binding in experiment [2] (n = 1.85) was characterised by a dissociation constant (Kd) of 1060 nM.
For the molecule `CC(=O)N[C@H]1[C@H](O[C@@H]([C@H](O)[C@H](CNc2ccccc2C(N)=O)NC(C)=O)[C@H](O)CO[C@@H]2O[C@@H](C)[C@@H](O)[C@@H](O)[C@@H]2O)O[C@H](CO)[C@@H](O[C@@H]2O[C@H](CO[C@H]3O[C@H](CO)[C@@H](O)[C@H](O)[C@@H]3O)[C@@H](O)[C@H](O[C@H]3O[C@H](CO)[C@@H](O)[C@H](O)[C@@H]3O)[C@@H]2O)[C@@H]1O` [M3N2F, 2-aminobenzamide (2-AB)-labeled trimannosyl core N-glycan (paucimannose) with core α1-6 fucose], the “% of total loaded recovered from lectin-bound fraction” value in experiment [1] is listed as 91%.
